Key:
[1] = xn = mol fraction of the nth substance listed; settings: 101 kPa, Liquid
[2] = refractive index (Na D-line) (dimensionless); xn = mol fraction of the nth substance listed; settings: 101 kPa, Liquid

CCCCn1cc[n+](C)c1.F[P-](F)(F)(F)(F)F [1-butyl-3-methylimidazolium hexafluorophosphate] + CCO
Settings | mass density, 293.15 K [kg/m3] | mass density, 298.15 K [kg/m3] | mass density, 303.15 K [kg/m3] | refractive index, 293.15 K | refractive index, 298.15 K | refractive index, 303.15 K | speed of sound, 293.15 K [m/s] | speed of sound, 298.15 K [m/s] | speed of sound, 303.15 K [m/s]
[1], x1 = 0.0009 | 791.5 | 787.4 | 783.1 | – | – | – | 1163 | 1144 | 1126
[1], x1 = 0.0021 | 794.3 | 790.1 | 785.8 | – | – | – | 1162 | 1145 | 1128
[1], x1 = 0.0033 | 797 | 792.8 | 788.5 | – | – | – | 1164 | 1146 | 1128
[1], x1 = 0.0056 | 802.3 | 798.1 | 793.8 | – | – | – | 1166 | 1147 | 1130
[1], x1 = 0.496 | 1246.7 | 1242.2 | 1237.9 | – | – | – | 1371 | 1359 | 1347
[1], x1 = 0.5032 | 1249.4 | 1245 | 1240.7 | – | – | – | 1373 | 1361 | 1349
[1], x1 = 0.5981 | 1282 | 1277.6 | 1273.4 | – | – | – | 1397 | 1384 | 1372
[1], x1 = 0.7045 | 1311.6 | 1307.3 | 1303 | – | – | – | 1417 | 1404 | 1391
[1], x1 = 0.8003 | 1333.9 | 1329.6 | 1325.4 | – | – | – | 1431 | 1418 | 1405
[1], x1 = 0.9002 | 1354.1 | 1349.9 | 1345.7 | – | – | – | 1443 | 1430 | 1418
[1], x1 = 0.9834 | 1368.8 | 1364.7 | 1360.5 | – | – | – | 1454 | 1440 | 1428
[1], x1 = 1 | 1371.6 | 1367.3 | 1363 | – | – | – | 1455 | 1443 | 1431
[2], x1 = 0.0009 | – | – | – | 1.36162 | 1.35956 | 1.35751 | – | – | –
[2], x1 = 0.0021 | – | – | – | 1.36196 | 1.3599 | 1.35781 | – | – | –
[2], x1 = 0.0033 | – | – | – | 1.36222 | 1.36018 | 1.35812 | – | – | –
[2], x1 = 0.0056 | – | – | – | 1.36281 | 1.3608 | 1.35871 | – | – | –
[2], x1 = 0.496 | – | – | – | 1.40171 | 1.40034 | 1.3994 | – | – | –
[2], x1 = 0.5032 | – | – | – | 1.40193 | 1.40055 | 1.39959 | – | – | –
[2], x1 = 0.5981 | – | – | – | 1.40432 | 1.40294 | 1.40176 | – | – | –
[2], x1 = 0.7045 | – | – | – | 1.40639 | 1.40507 | 1.40376 | – | – | –
[2], x1 = 0.8003 | – | – | – | 1.4079 | 1.40656 | 1.40522 | – | – | –
[2], x1 = 0.9002 | – | – | – | 1.4093 | 1.40799 | 1.40666 | – | – | –
[2], x1 = 0.9834 | – | – | – | 1.41052 | 1.40923 | 1.40795 | – | – | –
[2], x1 = 1 | – | – | – | 1.41069 | 1.40937 | 1.40808 | – | – | –

CCO [ethanol] + CCCCn1cc[n+](C)c1.F[P-](F)(F)(F)(F)F
x2 = 0
Settings | mass density, 293.15 K [kg/m3] | mass density, 298.15 K [kg/m3] | mass density, 303.15 K [kg/m3] | refractive index, 293.15 K | refractive index, 298.15 K | refractive index, 303.15 K | speed of sound, 293.15 K [m/s] | speed of sound, 298.15 K [m/s] | speed of sound, 303.15 K [m/s]
[1] | 789.3 | 785.1 | 780.7 | – | – | – | 1160 | 1143 | 1127
[2] | – | – | – | 1.36138 | 1.35929 | 1.35725 | – | – | –
